{"source": "paper PMC7305224", "about": "“Mutually stabilizing interactions between proto-peptides and RNA” (Nature Communications, 2020)", "key": {"[1]": {"test_system": "single-stranded 10mer RNA (5′-rCrGrArUrUrUrArGrCrG-3′)", "experiment": "Depsipeptide hydrolysis assay with single-stranded RNA", "format": "physicochemical", "conditions": "25 μM depsipeptide, single-stranded 10mer RNA 100 µM, 37 °C, pH 7.3 buffer, HPLC", "description": "(§1) To determine the extent of depsipeptide hydrolysis, the depsipeptide (25 μM) was incubated at 37 °C in buffer (100 mM HEPES, 10 mM NaCl, pH 7.3) in the presence or absence of 10mer RNA duplex 1 (5′-rCrGrArUrUrUrArGrCrG-3′ and 3′-rGrCrUrArArArUrCrGrC-5′) at various concentrations, or with single-stranded RNA (5′-rCrGrArUrUrUrArGrCrG-3′, 100 μM), for up to 100 h. Prior to adding depsipeptide to the reaction from its stock solution, the RNA was annealed by heating to 75 °C for 5 min, and then slowly cooling to room temperature. Reaction aliquots were quenched using 3% TFA and frozen or immediately analyzed by HPLC (270 nm). The relative concentrations of intact and hydrolyzed depsipeptide were quantified by integrating the corresponding peaks in HPLC traces. The kinetic profiles of depsipeptide hydrolysis were fit using SimFit-32 (provided by G. von Kiedrowski) according to the reaction scheme shown in Fig. 5a."}, "[2]": {"test_system": "RNA duplex 2 (5′-rArArArArUrUrUrArUrArUrUrArUrUrA-3′ and 5′-rUrArArUrArArUrArUrArArArUrUrUrU-3′)", "experiment": "RNA thermal denaturation (Tm) by UV hyperchromicity, RNA duplex 2", "format": "binding", "description": "Prior to Tm analyses, RNA samples were annealed in the appropriate buffer by heating to 75 °C and slowly cooling to room temperature. Depsipeptide/peptide was added to the annealed RNA and incubated at 4 °C for 20 min prior to carrying out the analysis. For analyses involving dry-down reaction mixtures, the Tm was determined by monitoring fluorescence increase upon melting of a fluorophore/quencher-labeled RNA duplex (5′-rCrGrArUrUrUrArGrCrG-/3IABkFQ/-3′ and 3′-rGrCrUrArArArUrCrGrC-FAM-5′) using a BioRad CFX Connect rtPCR instrument with a heating ramp of 1 °C/min and 20 μL final sample volumes. For analyses involving pure, synthetic compounds, the Tm of the RNA was determined by monitoring UV hyperchromicity at 260 nm using a Varian Cary Bio-100 spectrophotometer, with a heating ramp of 1 °C/min and 0.5- or 1-cm pathlength cells. The following RNA sequences were used: RNA duplex 1 = 5′-rCrGrCrUrArArArUrCrG-3′ and 5′-rCrGrArUrUrUrArGrCrG-3′; RNA duplex 2 = 5′-rArArArArUrUrUrArUrArUrUrArUrUrA-3′ and 5′-rUrArArUrArArUrArUrArArArUrUrUrU-3′; RNA duplex 3 = 5′-rArArCrGrUrArUrArCrGrUrU-3′ (palindromic); and H26a RNA = 5′-rArUrGrArGrUrArArCrCrGrUrArArGrGrUrGrArArArUrU-3′. RNA was present in each assay at a final concentration of 2.5 μM of the folded structure (2.5 μM each strand for duplex 1 and duplex 2, 5.0 μM palindromic strand for duplex 3, 2.5 μM strand for H26a RNA). Tm values were determined by nonlinear fitting of the melting curves using GraphPad Prism 8.2.1 for duplex 1 and H26a, or by finding the maximum of the first derivative of the curve using the Varian Cary Bio-100 software for duplex 2 and duplex 3. Both methods of determining the Tm gave similar values for a given denaturation curve."}, "RNA duplex 1": {"test_system": "RNA duplex 1", "experiment": "Depsipeptide hydrolysis assay with or without RNA duplex 1, SimFit modelling", "format": "physicochemical", "source_text": "Fig. 5 RNA increases the hydrolytic lifetime of a cationic depsipeptide. a A schematic of depsipeptide-RNA interactions leading to increased depsipeptide lifetimes. The free depsipeptide is hydrolyzed with a pseudo-first rate constant, khyd-free. Binding of the depsipeptide to RNA is governed at equilibrium by kassoc/kdissoc. The pseudo-first rate constant for of depsipeptide hydrolysis within the depsipeptide–RNA complex is khyd-complex. Under conditions where complex formation is favorable and khyd-complex < khyd-free, the presence of RNA will increase the depsipeptide lifetime. b HPLC traces (270 nm) showing hydrolysis of depsipeptide 9 (25 μM) at various time points in the presence or absence of RNA duplex 1 at 37 °C in pH 7.3 buffer. The C-terminal fragment of the hydrolyzed depsipeptide is not observed because it lacks the Aba chromophore. (c) Time courses for hydrolysis of depsipeptide 9 (25 μM) with varying concentrations of the RNA duplex 1. The curves shown are from simultaneous fits of data to the model given in panel a using SimFit[44]. During fitting, we fixed kassoc = 1 × 10^5 M^−1 s^−1. Therefore, three rate constants were fit, with values obtained by the fitting of: khyd-free = 1.1 × 10^−4 s^−1, khyd-complex = 3.2 × 10^−6 s^−1, and kdissoc = 8.3 × 10^−3 s^−1. d Kinetic profile of the hydrolysis reaction of depsipeptide 9 (25 μM) in the presence of 7 μM RNA duplex 1. […] The extent of depsipeptide hydrolysis and RNA hybridization were then measured. Data are shown as a scatter plot of two independently repeated experiments.\nas §1\nData from the nine independent depsipeptide hydrolysis reactions carried out with different concentrations of RNA duplex were simultaneously fit using SimFit to the reaction model shown in Fig. 5a. In the model, the free depsipeptide is subject to hydrolysis at a pseudo-first order rate governed by khyd-free. Binding of the depsipeptide to RNA according to an equilibrium determined by kassoc/kdissoc yields a depsipeptide-RNA complex, for which the pseudo-first order rate of ester hydrolysis is described by khyd-complex. During fitting, we fixed kassoc = 1 × 10^5 M^−1 s^−1, on the lower end of rates observed and expected for protein–RNA association. Therefore, three parameters were variable during the fitting, and the final rate constants determined by the fitting were: khyd-free = 1.1 × 10^−4 s^−1, khyd-complex = 3.2 × 10^−6 s^−1, and kdissoc = 8.3 × 10^−3 s^−1. […] Our model assumes a 1:1 stoichiometry for depsipeptide:RNA in the complex, and assumes the RNA is present only as a duplex (ignores steps involving RNA strand hybridization to form the duplex). The final RMS error of the fit was 5.4%. The output file obtained from the fitting is provided in the Supplementary Note."}, "[3]": {"conditions": "SimFit results output file, final NEWTON values"}}, "note": "pKd: −log10 of the molar value.", "data": [{"substance": "Aba-Gly-Ala-Dab-Lys-Ala-Dab-Lys-lac-Dab-Lys-Ala-Dab-Lys-NH2 [compound 9]", "values": [{"measurement": "increase of depsipeptide lifetime by single-stranded RNA", "setting": "[1]", "result": "roughly fivefold"}, {"measurement": "RNA duplex 2 Tm", "setting": "[2]; observed Tm with peptide/depsipeptide 100 µM, pH 7.0, RNA alone 33.7 ± 0.7, mean ± SD of 2-4 independent experiments", "result": "41.8 ± 0.6", "unit": "°C"}, {"measurement": "RNA duplex 2 ΔTm", "setting": "[2]; peptide/depsipeptide 100 μM, RNA 2.5 μM each strand, pH 7.0, 10 mM phosphate, 100 mM NaCl, mean of 2–4 replicates", "result": 8.2, "unit": "°C"}, {"measurement": "level of intact depsipeptide with RNA vs depsipeptide alone", "setting": "RNA duplex 1; 25 μM depsipeptide ± RNA duplex 1 (25 μM each strand), 37 °C, 12 h, HPLC", "result": "substantially higher levels"}, {"measurement": "increase of observed depsipeptide lifetime by RNA duplex", "setting": "RNA duplex 1; 25 μM depsipeptide, RNA duplex 1, 37 °C, pH 7.3 buffer, HPLC", "result": "~ 30 fold"}, {"measurement": "kdissoc (depsipeptide–RNA complex)", "setting": "RNA duplex 1; SimFit fit of hydrolysis data with kassoc fixed at 1 × 10^5 M^−1 s^−1, 37 °C, pH 7.3", "result": 0.0083, "unit": "s⁻¹"}, {"measurement": "k2 (SimFit output; kdissoc)", "setting": "RNA duplex 1; [3]", "result": "8.2871E-3"}, {"measurement": "k3 (SimFit output; khyd-complex)", "setting": "RNA duplex 1; [3]", "result": "3.1996E-6"}, {"measurement": "k1 (SimFit output; khyd-free)", "setting": "RNA duplex 1; SimFit results output file, final NEWTON values, R.M.S. 5.4087 %", "result": "1.0596E-4"}, {"measurement": "pKd", "setting": "RNA duplex 1; from fixed kassoc and calculated kdissoc, read-out: predicted dissociation constant of the depsipeptide-RNA complex", "result": 7.00}, {"measurement": "fold by which khyd-complex is lower than khyd-free", "setting": "RNA duplex 1; ratio of fitted rate constants", "result": "~ 34 fold"}]}]}
